Assay results: paper PMC7429951 (Journal of Medicinal Chemistry, 2020)

Columns and labels:
[1] = target: peptidase domain of ColH (ColH-PD) (Hathewaya histolytica, UniProt Q46085); assay: biochemical; parameters: species or system Clostridium histolyticum
[2] = target: collagenase unit of ColG (ColG-CU) (Hathewaya histolytica, UniProt Q9X721); assay: biochemical; parameters: species or system C. histolyticum; conditions: read-out: ColG-CU % inhibition @ 100 μM
MMP-7 = target: T1, MMP-7 (Homo sapiens, UniProt P09237); assay: MMP-7 off-target inhibition; type: biochemical; conditions: read-out: MMP-7 % inhibition @ 100 μM; 100 μM compound
T1 sequence (P09237 95-267): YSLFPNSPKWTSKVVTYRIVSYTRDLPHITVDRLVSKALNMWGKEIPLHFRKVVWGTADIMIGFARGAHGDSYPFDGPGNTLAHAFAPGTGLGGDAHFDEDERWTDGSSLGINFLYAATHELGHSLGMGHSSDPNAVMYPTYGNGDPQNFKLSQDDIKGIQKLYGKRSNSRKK
Source text: (§1) Previously, we described N-aryl mercaptoacetamides with high selectivity for the bacterial over a broad range of human MMPs.[29],[30] MMPs are calcium-dependent zinc metalloproteases that play a pivotal role in numerous biochemical processes in humans.[39],[40] Based on the depth of their S1′ binding pocket, MMPs can be divided into three classes: deep (e.g., MMP-3 and -14), intermediate (e.g., MMP-2 and -8), and shallow (e.g., MMP-1 and -7). With the aim to explore the interactions of our inhibitors with all three pocket types, which could help us to assess potential effects on other not-tested representatives, we chose a panel of six MMPs, comprising two members of each class. In addition, HDAC-3, HDAC-8, and TACE (ADAM-17)—enzymes involved in gene expression and the processing of TNF-α,[41],[42] respectively—were selected as important additional human off-targets.

MMP-8 = MMP-8 (Homo sapiens, UniProt P22894); assay: MMP-8 off-target inhibition; type: biochemical
MMP-8, sequence (P22894 101-467): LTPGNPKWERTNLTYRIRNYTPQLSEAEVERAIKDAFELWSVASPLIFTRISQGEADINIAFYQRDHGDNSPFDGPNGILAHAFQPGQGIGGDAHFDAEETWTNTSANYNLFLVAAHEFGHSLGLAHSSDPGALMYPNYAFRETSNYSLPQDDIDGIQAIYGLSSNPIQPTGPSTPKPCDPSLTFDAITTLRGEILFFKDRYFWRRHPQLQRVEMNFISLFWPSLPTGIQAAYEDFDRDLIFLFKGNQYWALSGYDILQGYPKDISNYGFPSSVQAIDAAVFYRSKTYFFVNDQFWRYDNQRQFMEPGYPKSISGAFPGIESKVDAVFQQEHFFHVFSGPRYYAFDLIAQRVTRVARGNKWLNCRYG
Source text: as §1

MMP-14 = MMP-14 (Homo sapiens, UniProt P50281); assay: MMP-14 off-target inhibition; type: biochemical
Source text: as §1

HDAC-8 = target: T2, HDAC-8 (Homo sapiens, UniProt Q9BY41); assay: HDAC-8 inhibitor screening kit; type: biochemical
T2 construct: purchased Sigma-Aldrich (Saint Louis, MO)
T2 sequence (Q9BY41 1-377): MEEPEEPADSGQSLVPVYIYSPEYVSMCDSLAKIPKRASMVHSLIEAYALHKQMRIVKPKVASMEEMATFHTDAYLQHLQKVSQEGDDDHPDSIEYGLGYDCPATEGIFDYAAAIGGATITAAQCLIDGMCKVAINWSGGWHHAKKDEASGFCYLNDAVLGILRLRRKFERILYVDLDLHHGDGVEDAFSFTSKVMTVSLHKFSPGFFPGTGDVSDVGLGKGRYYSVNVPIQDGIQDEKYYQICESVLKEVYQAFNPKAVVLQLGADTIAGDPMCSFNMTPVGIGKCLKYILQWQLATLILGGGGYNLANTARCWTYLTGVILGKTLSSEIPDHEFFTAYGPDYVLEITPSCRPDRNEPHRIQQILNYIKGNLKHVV
Source text: as §1

TACE (ADAM-17) = target: T3, TACE (ADAM-17) (Homo sapiens, UniProt P78536); assay: TACE inhibitor screening kit; type: biochemical
T3 construct: purchased Sigma-Aldrich (Saint Louis, MO)
T3 sequence (P78536 215-824): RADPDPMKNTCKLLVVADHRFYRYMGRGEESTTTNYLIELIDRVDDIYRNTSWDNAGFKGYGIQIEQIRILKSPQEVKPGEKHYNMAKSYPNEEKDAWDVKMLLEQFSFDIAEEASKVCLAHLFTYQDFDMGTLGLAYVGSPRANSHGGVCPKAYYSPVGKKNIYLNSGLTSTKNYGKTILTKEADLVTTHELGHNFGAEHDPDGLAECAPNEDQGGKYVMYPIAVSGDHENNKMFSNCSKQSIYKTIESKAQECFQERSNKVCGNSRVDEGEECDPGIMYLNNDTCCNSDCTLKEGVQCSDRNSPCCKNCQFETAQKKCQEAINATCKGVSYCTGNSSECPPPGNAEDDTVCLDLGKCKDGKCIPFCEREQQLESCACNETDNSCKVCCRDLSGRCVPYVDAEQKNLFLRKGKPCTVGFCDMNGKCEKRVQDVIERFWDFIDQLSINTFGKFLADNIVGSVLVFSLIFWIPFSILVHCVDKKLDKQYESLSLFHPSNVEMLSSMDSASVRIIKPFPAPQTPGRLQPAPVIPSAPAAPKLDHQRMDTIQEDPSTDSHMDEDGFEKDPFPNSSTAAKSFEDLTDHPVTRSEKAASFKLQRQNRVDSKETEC
Source text: as §1

ColQ1 = ColQ1 (Bacillus cereus, UniProt B9J3S4); assay: Ex vivo pig-skin model, hydroxyproline quantification; parameters: species or system B. cereus; conditions: pig-skin explants, 300 nM ColQ1, defined concentrations of compound, vs control
ColQ1, sequence (B9J3S4 94-965): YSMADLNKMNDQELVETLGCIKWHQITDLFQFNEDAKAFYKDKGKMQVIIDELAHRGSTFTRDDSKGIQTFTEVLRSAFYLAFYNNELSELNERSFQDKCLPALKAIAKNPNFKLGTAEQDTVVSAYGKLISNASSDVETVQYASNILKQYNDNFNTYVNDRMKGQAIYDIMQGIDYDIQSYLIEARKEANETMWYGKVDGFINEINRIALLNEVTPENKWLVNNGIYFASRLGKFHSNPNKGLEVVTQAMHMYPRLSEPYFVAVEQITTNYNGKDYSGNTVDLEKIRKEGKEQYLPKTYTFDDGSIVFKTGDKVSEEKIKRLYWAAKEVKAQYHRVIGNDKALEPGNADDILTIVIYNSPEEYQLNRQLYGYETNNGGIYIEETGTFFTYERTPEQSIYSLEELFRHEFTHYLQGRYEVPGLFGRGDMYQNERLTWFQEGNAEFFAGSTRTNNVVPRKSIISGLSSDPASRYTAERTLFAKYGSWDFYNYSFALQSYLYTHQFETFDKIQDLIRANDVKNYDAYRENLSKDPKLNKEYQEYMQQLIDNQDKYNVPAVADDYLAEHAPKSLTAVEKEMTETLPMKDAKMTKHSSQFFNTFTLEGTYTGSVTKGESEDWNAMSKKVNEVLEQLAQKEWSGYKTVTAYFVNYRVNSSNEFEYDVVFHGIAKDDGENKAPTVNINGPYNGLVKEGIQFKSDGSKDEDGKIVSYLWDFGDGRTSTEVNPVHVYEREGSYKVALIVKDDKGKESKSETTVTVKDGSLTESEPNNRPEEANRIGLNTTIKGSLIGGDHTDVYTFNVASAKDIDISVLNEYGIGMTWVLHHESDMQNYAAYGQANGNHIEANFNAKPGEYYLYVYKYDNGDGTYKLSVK
Source text: We established an ex vivo model based on pig skin to address the impact of our inhibitors on living mammalian tissue and on the contained collagen as the natural substrate of collagenase. We challenged the skin, prepared from the ear of freshly slaughtered pigs, with pure ColQ1 from B. cereus to degrade collagen. We assessed the activity of ColQ1 by quantifying the formation of hydroxyproline as an indicator for collagen turnover (Figure 4). Optimization of the assay conditions for the model consisted of examining different buffer conditions and different protein concentrations (Figures S1 and S2). To evaluate the potential effect of 25 on collagen turnover, we incubated the skin with ColQ1 in the absence and presence of defined concentrations of this compound. […] The good performance of our inhibitors in this model is a sound starting point for their subsequent testing under in vivo conditions. We expect that our inhibitors will accelerate the in vivo healing process, by preventing the distribution of infection. […]
Skin explants were obtained from freshly slaughtered pig ears, which were supplied by a local slaughterhouse. […] Absorbance was measured using a PHERAstar plate reader (BMG Labtech). The absorbance values were converted into the hydroxyproline concentration (μg/mL) using the calibration curve of hydroxyproline as a reference (Figure S3).

[3] = system: C. histolyticum strain DSM 1126; assay: Bacterial growth inhibition assay (MIC) C. histolyticum; type: cell-based, Clostridium histolyticum; conditions: strain DSM 1126, BHI medium, 48 h anaerobic
LasB [4] = target: T4, LasB (Pseudomonas aeruginosa, UniProt Q02RJ6); conditions: vs 4-OMe analogue
T4 sequence (Q02RJ6 198-498): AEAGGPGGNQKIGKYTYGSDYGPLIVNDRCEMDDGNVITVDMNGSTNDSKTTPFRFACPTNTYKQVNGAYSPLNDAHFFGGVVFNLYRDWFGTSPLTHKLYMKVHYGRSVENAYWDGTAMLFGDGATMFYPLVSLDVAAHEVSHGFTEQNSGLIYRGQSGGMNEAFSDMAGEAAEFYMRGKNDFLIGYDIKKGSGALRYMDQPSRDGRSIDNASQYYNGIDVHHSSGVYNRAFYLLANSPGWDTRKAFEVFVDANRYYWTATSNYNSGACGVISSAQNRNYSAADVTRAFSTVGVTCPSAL

in vitro [5] = conditions: human, HepG2 cells (hepatocellular carcinoma)
in vitro [6] = conditions: human, HEK293 cells (embryonal kidney)
in vitro [7] = conditions: human, A549 cells (lung carcinoma)
LasB [8] = target: T4, LasB; assay: biochemical; conditions: LasB IC50, FRET-based assay

peptidase domain of ColH (ColH-PD), sequence (Q46085 331-721 limits assumed): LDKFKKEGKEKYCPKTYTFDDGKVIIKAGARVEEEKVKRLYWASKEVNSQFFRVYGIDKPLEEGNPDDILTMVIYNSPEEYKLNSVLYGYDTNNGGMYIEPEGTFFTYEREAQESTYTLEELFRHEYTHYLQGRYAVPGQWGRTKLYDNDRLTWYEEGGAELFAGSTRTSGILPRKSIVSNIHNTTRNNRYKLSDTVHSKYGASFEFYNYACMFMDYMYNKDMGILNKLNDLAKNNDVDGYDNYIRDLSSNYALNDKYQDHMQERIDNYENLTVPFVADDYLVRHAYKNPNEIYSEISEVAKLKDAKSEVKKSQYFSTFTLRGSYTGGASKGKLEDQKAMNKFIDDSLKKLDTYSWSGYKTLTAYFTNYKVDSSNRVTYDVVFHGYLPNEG
collagenase unit of ColG (ColG-CU), sequence (Q9X721 111-786): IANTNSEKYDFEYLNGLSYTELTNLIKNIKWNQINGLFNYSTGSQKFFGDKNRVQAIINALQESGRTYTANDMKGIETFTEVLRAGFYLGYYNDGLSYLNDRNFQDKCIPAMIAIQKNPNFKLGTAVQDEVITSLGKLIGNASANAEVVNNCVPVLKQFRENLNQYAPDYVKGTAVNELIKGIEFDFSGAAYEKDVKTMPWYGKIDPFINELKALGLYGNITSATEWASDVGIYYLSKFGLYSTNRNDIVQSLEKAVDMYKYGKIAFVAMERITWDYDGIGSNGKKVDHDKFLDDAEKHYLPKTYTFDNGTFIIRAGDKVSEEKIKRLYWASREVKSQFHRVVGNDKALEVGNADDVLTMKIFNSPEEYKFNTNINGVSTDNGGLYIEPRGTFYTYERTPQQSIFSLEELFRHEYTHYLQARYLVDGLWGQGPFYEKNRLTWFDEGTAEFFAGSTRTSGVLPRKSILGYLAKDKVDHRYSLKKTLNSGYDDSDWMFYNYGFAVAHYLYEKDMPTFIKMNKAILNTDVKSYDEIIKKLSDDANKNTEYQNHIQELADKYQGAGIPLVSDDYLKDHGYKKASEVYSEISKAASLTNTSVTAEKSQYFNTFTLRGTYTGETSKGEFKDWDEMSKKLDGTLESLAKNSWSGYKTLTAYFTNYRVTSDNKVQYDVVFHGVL

Molecule CC(=O)c1ccc(N2C(=O)CC(S)C2=O)cc1 (stereo not shown) [Compound 25, 1-(4-Acetylphenyl)-3-mercaptopyrrolidine-2,5-dione] has an IC50 [1] of 60 ± 10 nM, an inhibition at 1 µM ([1]; read-out: ColH-PD % inhibition @ 1 μM) of 95% and an inhibition at 100 µM ([1]; read-out: ColH-PD % inhibition @ 100 μM) of 96 ± 2%. For the same molecule, the inhibition at 100 µM [2] was 100 ± 2%, the inhibition at 100 µM (MMP-7) was under 10% and the inhibition at 50 µM (MMP-8; 50 µM compound, read-out: MMP-8 % inh @50µM) was under 10%. For the same molecule, the inhibition at 100 µM (MMP-8; read-out: MMP-8 % inhibition @ 100 μM, 100 μM compound) was 94 ± 1%, the inhibition at 50 µM (MMP-14; 50 µM compound, read-out: MMP-14 % inh @50µM) was under 10% and the inhibition at 100 µM (MMP-14; read-out: MMP-14 % inhibition @ 100 μM, 100 μM compound) was 84 ± 8%. For the same molecule, the IC50 (HDAC-8) was over 100 µM, the IC50 (TACE (ADAM-17)) was 3.4 ± 1.2 µM and the “hydroxyproline released (collagenolytic activity of ColQ1)” value (ColQ1) was “significantly reduced amount of hydroxyproline released compared to control”. The MIC ([3]; Hathewaya histolytica, DSM1126) was over 100 µM, the MIC [3] was over 100 µM and the “times more active on LasB than its methoxy-analogue” value (LasB [4]) was 1.7 times. It also gave an IC50 (in vitro [5]) of over 100 µM, an IC50 (in vitro [6]) of over 100 µM and an IC50 (in vitro [7]) of over 100 µM. For the same molecule, the IC50 (LasB [8]) was 64 ± 7.5 µM.
